This is an account of results in patent EP4663198A1, “COMPOSITION CONTAINING CYCLIC PEPTIDE COMPOUND AND SURFACTANT” (CHUGAI SEIYAKU KABUSHIKI KAISHA, priority 2023, dated 2024).

The conditions of this data set: Caco-2, pH 6.5.

Procedure: Caco-2 cells were cultured on 96-well Transwell for 3 weeks. […] From the permeation amount, the permeability coefficient (Caco-2 Papp (cm/sec)) was calculated.
From the measured permeation amount, the permeability coefficient was calculated.

By Papp A→B is commonly meant how fast a substance crosses the layer from the apical side. `CCO[C@@H]1C[C@H]2C(=O)NC3(CCCC3)C(=O)N[C@@H](C3CCCC3)C(=O)N(C)[C@H](C(=O)N(C)C)CC(=O)N(C)[C@@H](CC(C)C)C(=O)N[C@@H]([C@@H](C)CC)C(=O)N(C)CC(=O)N(C)[C@H]3C/C=C\CCN(C3=O)[C@@H](Cc3ccc(C(F)(F)F)cc3)C(=O)N(C)CC(=O)N[C@@H](CCc3cc(F)c(C(F)(F)F)c(F)c3)C(=O)N2C1` [CP01, (2S,8S,12R,14S,20S,23S,27S,30S,36S,38Z)-20-cyclopentyl-8-[2-[3,5-difluoro-4-(trifluoromethyl)phenyl]ethyl]-12-ethoxy-27-isobutyl-N,N,4,22,26,32,35-heptamethyl-30-[(1S)-1-methylpropyl]-3,6,9,15,18,21,25,28,31,34,42-undecaoxo-2-[(4-(trifluoromethyl)phenyl]methyl]spiro[1,4,7,10,16,19,22,26,29,32,35-undecazatricyclo[34.5.1.0^10,14]dotetraconta-38-en-17,1'-cyclopentane]-23-carboxamide] returned an apparent permeability from apical to basolateral (Papp A→B) of 0.0525 ×10⁻⁶ cm/s.
